# Assay results: ChEMBL document CHEMBL1122865 (J Med Chem, 1985)
# Target: D(1A) dopamine receptor (Rattus norvegicus) (UniProt P18901)
# Assay: Tested for its ability to stimulate rat caudate adenylate cyclase (Dopamine receptor D1) at 10 uM
# Conditions: not given
# Sequence of D(1A) dopamine receptor (Rattus norvegicus) (P18901 whole entry): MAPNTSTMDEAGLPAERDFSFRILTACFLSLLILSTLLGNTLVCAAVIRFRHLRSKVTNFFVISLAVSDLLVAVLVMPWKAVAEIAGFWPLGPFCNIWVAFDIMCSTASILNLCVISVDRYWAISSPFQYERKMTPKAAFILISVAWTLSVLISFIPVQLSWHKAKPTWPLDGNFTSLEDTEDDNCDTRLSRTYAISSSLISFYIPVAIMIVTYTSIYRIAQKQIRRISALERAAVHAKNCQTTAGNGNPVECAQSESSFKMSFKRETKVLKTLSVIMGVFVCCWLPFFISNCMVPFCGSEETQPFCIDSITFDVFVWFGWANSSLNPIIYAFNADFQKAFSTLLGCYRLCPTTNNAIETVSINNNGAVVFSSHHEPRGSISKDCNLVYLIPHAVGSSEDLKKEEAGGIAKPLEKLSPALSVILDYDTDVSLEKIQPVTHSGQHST
row,Stimulation,Structure (SMILES)
1,3%,CCCN(CCC)CCc1ccc(OC)c2nc(O)ccc12
2,1%,CCCN(CCC)CCc1ccc(O)c2c1CCC(=O)N2
3,1%,CCCN(CCC)CCc1ccc(O)c2[nH]c(=O)ccc12
4,4%,CCCN(CCC)CCc1cccc2nc(O)ccc12

# Further lines, the molecule ahead of its results:
row,Structure (SMILES),Stimulation
1,CCCN(CCc1ccc(O)cc1)CCc1ccc(O)c2nc(O)ccc12,0%
2,CCCN(CCc1ccccc1)CCc1ccc(O)c2nc(O)ccc12,0%
3,NCCc1ccc(O)c2nc(O)ccc12,27%
4,COc1ccc(CCNCCc2ccccc2)c2ccc(O)nc12,0%
5,NCCc1cccc2nc(O)ccc12,1%
6,Oc1ccc(CCNCCc2ccc(O)c3nc(O)ccc23)cc1,2%
7,COc1ccc(CCN)c2ccc(O)nc12,3%

# Target: D(2) dopamine receptor (Bos taurus) (UniProt P20288)
# Sequence (P20288 whole entry): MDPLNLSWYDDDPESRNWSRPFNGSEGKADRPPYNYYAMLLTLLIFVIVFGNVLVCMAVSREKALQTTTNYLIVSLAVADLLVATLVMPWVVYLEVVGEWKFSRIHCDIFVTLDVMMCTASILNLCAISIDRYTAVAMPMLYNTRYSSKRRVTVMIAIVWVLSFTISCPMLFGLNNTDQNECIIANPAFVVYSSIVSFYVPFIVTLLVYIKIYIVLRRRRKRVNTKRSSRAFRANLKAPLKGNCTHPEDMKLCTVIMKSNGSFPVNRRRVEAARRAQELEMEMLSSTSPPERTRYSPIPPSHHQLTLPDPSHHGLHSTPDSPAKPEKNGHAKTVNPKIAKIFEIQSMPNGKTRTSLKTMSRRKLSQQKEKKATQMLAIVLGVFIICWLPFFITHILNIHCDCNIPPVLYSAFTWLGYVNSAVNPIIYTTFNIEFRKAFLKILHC
# Assay: Compound was tested for its ability to inhibit specific [3H]spiroperidol binding to bovine anterior pituitary homogenate, at 10 uM
# Conditions: not given
row,Kb,Structure (SMILES)
1,770 nM,CCCN(CCc1ccc(O)cc1)CCc1ccc(O)c2nc(O)ccc12
2,2020 nM,CCCN(CCc1ccccc1)CCc1ccc(O)c2nc(O)ccc12
3,15100 nM,CCCN(CCC)CCc1ccc(O)c2c1CCC(=O)N2

row,Structure (SMILES),Kb
1,NCCc1ccc(O)c2nc(O)ccc12,4040 nM

# Target: D(1A) dopamine receptor (Rattus norvegicus) (UniProt P18901)
# Assay: Tested for its ability to inhibit rat caudate adenylate cyclase (Dopamine receptor D1) at 10 uM
# Conditions: not given
row,inhibition,Structure (SMILES)
1,0%,CCCN(CCC)CCc1ccc(OC)c2nc(O)ccc12
2,0%,CCCN(CCC)CCc1ccc(O)c2c1CCC(=O)N2
3,0%,CCCN(CCC)CCc1ccc(O)c2[nH]c(=O)ccc12
4,0%,CCCN(CCC)CCc1cccc2nc(O)ccc12

# Continued, molecule first:
row,Structure (SMILES),inhibition
1,CCCN(CCc1ccc(O)cc1)CCc1ccc(O)c2nc(O)ccc12,0%
2,CCCN(CCc1ccccc1)CCc1ccc(O)c2nc(O)ccc12,6%
3,NCCc1ccc(O)c2nc(O)ccc12,1%
4,COc1ccc(CCNCCc2ccccc2)c2ccc(O)nc12,0%
5,NCCc1cccc2nc(O)ccc12,5%
6,Oc1ccc(CCNCCc2ccc(O)c3nc(O)ccc23)cc1,6%
7,COc1ccc(CCN)c2ccc(O)nc12,1%

# Target: D(2) dopamine receptor (Bos taurus) (UniProt P20288)
# Assay: Ability to inhibit specific [3H]spiroperidol binding to bovine anterior pituitary homogenate, at 10 uM
# Conditions: not given
row,Displacement,Structure (SMILES)
1,6%,CCCN(CCC)CCc1ccc(OC)c2nc(O)ccc12
2,40%,CCCN(CCC)CCc1ccc(O)c2c1CCC(=O)N2
3,19%,CCCN(CCC)CCc1ccc(O)c2[nH]c(=O)ccc12
4,30%,CCCN(CCC)CCc1cccc2nc(O)ccc12

# Second part, the molecule before the results:
row,Structure (SMILES),Displacement
1,CCCN(CCc1ccc(O)cc1)CCc1ccc(O)c2nc(O)ccc12,78%
2,CCCN(CCc1ccccc1)CCc1ccc(O)c2nc(O)ccc12,72%
3,NCCc1ccc(O)c2nc(O)ccc12,56%
4,COc1ccc(CCNCCc2ccccc2)c2ccc(O)nc12,9%
5,NCCc1cccc2nc(O)ccc12,21%
6,Oc1ccc(CCNCCc2ccc(O)c3nc(O)ccc23)cc1,42%
7,COc1ccc(CCN)c2ccc(O)nc12,9%

# Species on record: Oryctolagus cuniculus
# Assay: Compound was tested for DA agonistic activity in the isolated perfused rabbit ear artery.
# Assay type: functional
# Conditions: read-out: ED50 (the source's name)
row,EC50,Structure (SMILES)
1,252 nM,CCCN(CCC)CCc1ccc(O)c2c1CCC(=O)N2
2,493 nM,CCCN(CCC)CCc1ccc(O)c2[nH]c(=O)ccc12

# Continued, molecule first:
row,Structure (SMILES),EC50
1,CCCN(CCc1ccc(O)cc1)CCc1ccc(O)c2nc(O)ccc12,12.3 nM
2,CCCN(CCc1ccccc1)CCc1ccc(O)c2nc(O)ccc12,128 nM
3,NCCc1ccc(O)c2nc(O)ccc12,140 nM
4,Oc1ccc(CCNCCc2ccc(O)c3nc(O)ccc23)cc1,136 nM

# Species on record: Oryctolagus cuniculus
# Assay: The compound was tested for DA agonistic activity in the isolated perfused rabbit ear artery.
# Assay type: functional
# Conditions: read-out: ED50 (the source's name)
row,Structure (SMILES),EC50
1,NC1CCc2cc(O)c(O)cc2C1 (stereo not given),4.6 nM
2,NCCc1ccc(O)c(O)c1 [DOPAMINE],37 nM
